From ChEMBL document CHEMBL2046407, “Synthesis and in vitro antitubercular activity of 4-aryl/alkylsulfonylmethylcoumarins as inhibitors of Mycobacterium tuberculosis” (2012)
Converted amounts (≈) assume the structure as drawn.

What follows are compounds tested on Mycobacterium tuberculosis (assay: Antimycobacterial activity against Mycobacterium tuberculosis H37Rv by agar diffusion method).
Type: functional
Work on COc1ccc2c(CS(=O)(=O)c3ccc(C)cc3)cc(=O)oc2c1 yielded an MIC of 12.5 µg/mL (≈ 36.3 µM).
With COc1ccc2c(CS(=O)(=O)c3nc4ccccc4[nH]3)cc(=O)oc2c1OC the MIC was 6.25 µg/mL (≈ 15.6 µM).
Compound NC(=O)c1cnccn1 [PYRAZINAMIDE] has an MIC of 6.25 µg/mL (≈ 50.8 µM).
Cc1ccc(S(=O)(=O)Cc2cc(=O)oc3ccccc23)cc1 showed an MIC of 12.5 µg/mL (≈ 39.8 µM).
Compound O=c1cc(CS(=O)(=O)c2ccccc2)c2ccccc2o1 has an MIC of 6.25 µg/mL (≈ 20.8 µM).
With COc1ccc2c(CS(=O)(=O)c3nc4ccccc4[nH]3)cc(=O)oc2c1 the MIC was 6.25 µg/mL (≈ 16.9 µM).
CC[C@@H](CO)NCCN[C@@H](CC)CO [ETHAMBUTOL] showed an MIC of 1.56 µg/mL (≈ 7.64 µM).
Work on COc1ccc2c(CS(=O)(=O)c3nc4ccccc4o3)cc(=O)oc2c1OC yielded an MIC of 0.78 µg/mL (≈ 1.94 µM).
Work on COc1ccc2c(CS(=O)(=O)C3CCCCC3)cc(=O)oc2c1 yielded an MIC of 12.5 µg/mL (≈ 37.2 µM).
For O=c1cc(CS(=O)(=O)c2nc3ccccc3o2)c2ccccc2o1, the MIC was 7.5 µg/mL (≈ 22 µM).
COc1ccc2c(CS(=O)(=O)c3nc4ccccc4o3)cc(=O)oc2c1 was tested, and the MIC was 6.25 µg/mL (≈ 16.8 µM).
O=c1cc(CS(=O)(=O)C2CCCCC2)c2ccccc2o1 showed an MIC of 6.25 µg/mL (≈ 20.4 µM).
COc1ccc2c(CS(=O)(=O)c3ccc(Cl)cc3)cc(=O)oc2c1 gave an MIC of 6.25 µg/mL (≈ 17.1 µM).
With COc1ccc2c(CS(=O)(=O)c3ccc(Cl)cc3)cc(=O)oc2c1OC the MIC was 1.56 µg/mL (≈ 3.95 µM).
For COc1ccc2c(CS(=O)(=O)c3ccc(C)cc3)cc(=O)oc2c1OC, the MIC was 3.13 µg/mL (≈ 8.36 µM).
COc1ccc2c(CS(=O)(=O)C3CCCCC3)cc(=O)oc2c1OC showed an MIC of 12.5 µg/mL (≈ 34.1 µM).
For O=c1cc(CS(=O)(=O)c2ccc(Cl)cc2)c2ccccc2o1, the MIC was 12.5 µg/mL (≈ 37.3 µM).
Work on O=c1cc(CS(=O)(=O)c2nc3ccccc3[nH]2)c2ccccc2o1 yielded an MIC of 1.61 µg/mL (≈ 4.73 µM).
For COc1ccc2c(CS(=O)(=O)c3ccccc3)cc(=O)oc2c1OC, the MIC was 6.25 µg/mL (≈ 17.3 µM).
Compound COc1ccc2c(CS(=O)(=O)c3ccccc3)cc(=O)oc2c1 has an MIC of 12.5 µg/mL (≈ 37.8 µM).
